According to US20230111853A1, “COMPOUNDS MODULATING PROTEIN RECRUITMENT AND/OR DEGRADATION” (Orionis Biosciences, Inc., priority 2019, published 2023):
Where two headings read alike, the source gives them in different places.

Tests used:
[1] = system: IKZF1, ASS1 and SALL4 recruitment to CRBN; assay: Recruitment assessment: recruitment of any tested substrate from among IKZF1, ASS1 and SALL4; assay type: cell-based; conditions: any tested substrate at any tested compound concentration
[2] = target: CRBN (Homo sapiens, UniProt Q96SW2); assay: Competition Assay (MAPPIT-like, competition with trimethoprim-lenalidomide hybrid ligand for binding to CRBN in cells)
[3] = target: T1, SALL4 recruitment to CRBN (Homo sapiens, UniProt Q96SW2); assay: Recruitment Assay (MAPPIT-like): SALL4 recruitment to CRBN; assay type: cell-based; conditions: HEK293T cells; pSEL-SALL4+pMG1-CRBN; luciferase 24 hours after treatment; read-out: EC50_SALL4
T1 construct: Full size proteins were fused for each of the target proteins tested, except in the case of IKZF1 where isoform 7 was used; expressed in transfected cells; host or cells: HEK293T
Procedure: (§1) In this experimental set-up, cells were transfected with a construct encoding a CRBN-fusion protein and another one encoding a substrate-fusion protein. Test compound activity was assessed with increasing concentrations of test compounds (dose-response studies) to monitor the ability to promote CRBN-ligand-induced protein interaction.
(§2) Full size proteins were fused for each of the target proteins tested, except in the case of IKZF1 where isoform 7 was used. For the study, the following were used: IKZF1 recruitment: pSEL-CRBN+pMG1-IKZF1(isoform 7); ASS1 recruitment: pSEL-CRBN+pMG1-ASS1. SALL4 recruitment: pSEL-SALL4+pMG1-CRBN. […] Luciferase activity was measured 24 hours after test compound treatment using the Luciferase Assay System kit (PROMEGA, Madison, Wis.) with an Ensight plate reader (PERKIN ELMER LIFE SCIENCES, Waltham, Mass.). Data points depicted fold induction of the average luciferase activity of triplicate samples from EPO+test compound treated cells versus EPO only treated cells. Error bars represent standard deviations. Curves were fit using 4-parameter nonlinear regression in […] PRISM software.

[4] = target: T2, IKZF1 (isoform 7) recruitment to CRBN (Homo sapiens, UniProt Q96SW2); assay: Recruitment Assay (MAPPIT-like): IKZF1 recruitment to CRBN; assay type: cell-based; conditions: HEK293T cells; pSEL-CRBN+pMG1-IKZF1(isoform 7); luciferase 24 hours after treatment; read-out: EC50_IKZF1
T2 construct: Full size proteins were fused for each of the target proteins tested, except in the case of IKZF1 where isoform 7 was used; expressed in transfected cells; host or cells: HEK293T
Procedure: as §1, §2

[5] = target: T3, ASS1 recruitment to CRBN (Homo sapiens, UniProt Q96SW2); assay: Recruitment Assay (MAPPIT-like): ASS1 recruitment to CRBN; assay type: cell-based; conditions: HEK293T cells; pSEL-CRBN+pMG1-ASS1; luciferase 24 hours after treatment; read-out: EC50_ASS1
T3 construct: Full size proteins were fused for each of the target proteins tested, except in the case of IKZF1 where isoform 7 was used; expressed in transfected cells; host or cells: HEK293T
Procedure: as §1, §2

[6] = read-out: IC50 Competition, HEK293T cells, competition with 300 nM trimethoprim-lenalidomide hybrid ligand, luciferase 24 hours after compound treatment

Compound | IC50 [2, 6] [nM] | EC50 [3] [nM] | EC50 [4] [nM] | EC50 [5] [nM] | IC50 [2] [nM] | Recruitment Assessment [1]
Cc1ccc2c(c1)C(=O)N(c1c(C(C)C)cccc1C(C)C)C2=O [5HPP-33, 2-(2,6-diisopropylphenyl)-5-methyl-isoindoline-1,3-dione, reference compound] | 5110 | – | – | – | – | FALSE
Cc1cccc2nnn(C3CCC(=O)NC3=O)c(=O)c12 (centres unmarked) [C13247, 3-(5-methyl-4-oxo-1,2,3-benzotriazin-3-yl)piperidine-2,6-dione] | – | 402 | 2880 | 8550 | – | TRUE
O=C1CCC(n2nnc3ccccc3c2=O)C(=O)N1 (centres unmarked) [C21223, 3-(4-oxo-1,2,3-benzotriazin-3-yl)piperidine-2,6-dione] | – | 517 | – | – | 2240 | TRUE
O=C1CCC(N2Cc3c(Cl)cccc3C2=O)C(=O)N1 (centres unmarked) [C24031, 3-(4-chloro-1-oxo-isoindolin-2-yl)piperidine-2,6-dione] | – | < 13.7 | 58.7 | 259 | – | TRUE
O=C1CCC(N2C(=O)C3CCCCC3C2=O)C(=O)N1 (centres unmarked) [C24191, 2-(2,6-dioxo-3-piperidyl)-3a,4,5,6,7,7a-hexahydroisoindole-1,3-dione] | 17700 | – | – | – | – | FALSE
Cc1cccc2c1CN(C1CCC(=O)NC1=O)C2=O (centres unmarked) [C28558, 3-(4-methyl-1-oxo-isoindolin-2-yl)piperidine-2,6-dione] | – | < 13.7 | 77.4 | 368 | – | TRUE
Cc1ccc2c(c1)CN(C1CCC(=O)NC1=O)C2=O (centres unmarked) [C28577, 3-(5-methyl-1-oxo-isoindolin-2-yl)piperidine-2,6-dione] | – | < 13.7 | 1610 | 653 | – | TRUE
O=C1CCC(N2Cc3cc(NCCNC(=O)Nc4ccccc4)ccc3C2=O)C(=O)N1 (centres unmarked) [C35751, 1-[2-[[2-(2,6-dioxo-3-piperidyl)-1-oxo-isoindolin-5-yl]amino]ethyl]-3-phenyl-urea] | – | 232 | – | 1450 | – | TRUE
Cc1cccc2c(=O)n(C3CCC(=O)NC3=O)nnc12 (centres unmarked) [C35830, 3-(8-methyl-4-oxo-1,2,3-benzotriazin-3-yl)piperidine-2,6-dione] | – | 588 | – | 5560 | – | TRUE
O=C1CCC(N2Cc3c(cccc3-c3ccccc3)C2=O)C(=O)N1 (centres unmarked) [C48014, 3-(1-oxo-4-phenyl-isoindolin-2-yl)piperidine-2,6-dione] | – | 62.1 | 1240 | 921 | – | TRUE
CC1c2ccccc2C(=O)N1C1CCC(=O)NC1=O (centres unmarked) [C51383, 3-(1-methyl-3-oxo-isoindolin-2-yl)piperidine-2,6-dione] | – | 59.3 | 1520 | 1700 | – | TRUE
Nc1cccc2nnn(C3CCC(=O)NC3=O)c(=O)c12 (centres unmarked) [C59904, 3-(5-amino-4-oxo-1,2,3-benzotriazin-3-yl)piperidine-2,6-dione] | – | 330 | 122 | 687 | – | TRUE

Now from value to molecule, other results behind:

IC50 [2, 6] [nM] | EC50 [3] [nM] | EC50 [4] [nM] | EC50 [5] [nM] | IC50 [2] [nM] | Compound | Recruitment Assessment [1]
– | 29.3 | 569 | 884 | – | O=C1CCC(N2Cc3c(ccc4c3OCO4)C2=O)C(=O)N1 (centres unmarked) [C67858, 3-(6-oxo-8H-[1,3]dioxolo[4,5-e]isoindol-7-yl)piperidine-2,6-dione] | TRUE
6500 | – | – | – | – | O=C1CC/C(=C/c2ccccc2)C(=O)N1 [C68121, (3Z)-3-benzylidenepiperidine-2,6-dione] | FALSE
– | – | – | 1290 | – | O=C1CCC(N2Cc3cc(Nc4ncccn4)ccc3C2=O)C(=O)N1 (centres unmarked) [C80369, 3-[1-oxo-5-(pyrimidin-2-ylamino)isoindolin-2-yl]piperidine-2,6-dione] | TRUE
– | 387 | – | 9420 | – | N#Cc1ccc(Nc2ccc3c(c2)CN(C2CCC(=O)NC2=O)C3=O)nn1 (centres unmarked) [C80378, 6-[[2-(2,6-dioxo-3-piperidyl)-1-oxo-isoindolin-5-yl]amino] pyridazine-3-carbonitrile] | TRUE
199 | – | – | – | – | O=C1CCC(N2Cc3ccc(NCC(=O)Nc4ccccc4)cc3C2=O)C(=O)N1 (centres unmarked) [C84965, 2-[[2-(2,6-dioxo-3-piperidyl)-3-oxo-isoindolin-5-yl]amino]-N-phenyl-acetamide] | TRUE
6320 | – | – | – | – | O=C1CCC(Nc2ncc3ccccc3n2)C(=O)N1 (centres unmarked) [C97402, 3-(quinazolin-2-ylamino)piperidine-2,6-dione] | FALSE
– | – | < 13.7 | 80.1 | – | Cc1ccc(NC(=O)NCc2ccc3c(c2)CN(C2CCC(=O)NC2=O)C3=O)cc1Cl (centres unmarked) [CC-885, 1-(3-chloro-4-methyl-phenyl)-3-[[2-(2,6-dioxo-3-piperidyl)-1-oxo-isoindolin-5-yl]methyl]urea, reference compound] | TRUE
– | 801 | 4680 | – | – | O=C(O)CN1CCN(Cc2ccc(COc3cccc4c3CN(C3CCC(=O)NC3=O)C4=O)cc2)CC1.O=CO (centres unmarked) [ZE26-0001, 2-[4-[[4-[[2-(2,6-dioxo-3-piperidyl)-1-oxo-isoindolin-4-yl]oxymethyl]phenyl]methyl]piperazin-1-yl]acetic acid; formic acid] | TRUE
